Tested on: MV-4-11 cells
Test: Gene expression microarray analysis (Affymetrix PrimeView) and GSEA
Type: cell-based, human
Set-up: RFU PODN (11730768_x_at) / Fold change /veh PODN (11730768_x_at) / RFU LINC00158 (11744669_a_at) / Fold change /veh LINC00158 (11744669_a_at) / RFU DUSP10 (11751237_a_at) / Fold change /veh DUSP10 (11751237_a_at) / RFU ID3 (11757404_x_at) / Fold change /veh ID3 (11757404_x_at) / RFU PLEKHG5 (11737974_s_at) / Fold change /veh PLEKHG5 (11737974_s_at) / RFU LRRC4B (11730491_at) / Fold change /veh LRRC4B (11730491_at) / RFU GIMAP4 (11747438_a_at) / Fold change /veh GIMAP4 (11747438_a_at) / RFU KRT8 (11758183_x_at) / Fold change /veh KRT8 (11758183_x_at) / RFU CNN1 (11734310_a_at) / Fold change /veh CNN1 (11734310_a_at) / RFU VPS37D (11726825_at) / Fold change /veh VPS37D (11726825_at) / RFU C10orf10 (11716522_x_at) / Fold change /veh C10orf10 (11716522_x_at) / RFU KIR2DL2 /// KIR2DL4 /// KIR2DL5A /// KIR2DL5B /// KIR2DS1 /// KIR2DS2 /// KIR2DS3 /// KIR2DS4 /// KIR3DL3 /// KIR3DL3 /// KIR3DS1 (11738374_at) / Fold change /veh KIR2DL2 /// KIR2DL4 /// KIR2DL5A /// KIR2DL5B /// KIR2DS1 /// KIR2DS2 /// KIR2DS3 /// KIR2DS4 /// KIR3DL3 /// KIR3DL3 /// KIR3DS1 (11738374_at) / RFU C1QL1 (11718748_at) / Fold change /veh C1QL1 (11718748_at) / RFU TMPRSS4 (11747572_a_at) / Fold change /veh TMPRSS4 (11747572_a_at) / RFU HAMP (11756126_x_at) / Fold change /veh HAMP (11756126_x_at) / RFU RNFT2 (11725882_a_at) / Fold change /veh RNFT2 (11725882_a_at) / RFU NR4A2 (11747474_a_at) / Fold change /veh NR4A2 (11747474_a_at) / RFU ABCC12 (11746883_a_at) / Fold change /veh ABCC12 (11746883_a_at) / RFU TMEM136 (11760407_x_at) / Fold change /veh TMEM136 (11760407_x_at) / RFU CLDN22 /// WWC2 (11732394_at) / Fold change /veh CLDN22 /// WWC2 (11732394_at) / RFU HLA-DPB1 (11760878_x_at) / Fold change /veh HLA-DPB1 (11760878_x_at) / RFU SPINT1 (11716480_a_at) / Fold change /veh SPINT1 (11716480_a_at) / RFU GAP43 (11754022_s_at) / Fold change /veh GAP43 (11754022_s_at) / RFU A4GNT (11735810_at) / Fold change /veh A4GNT (11735810_at) / RFU PRB3 (11715151_x_at) / Fold change /veh PRB3 (11715151_x_at) / RFU TUBB4B (11761932_at) / Fold change /veh TUBB4B (11761932_at) / RFU CAPN14 (11732068_a_at) / Fold change /veh CAPN14 (11732068_a_at) / RFU TMCC2 (11721928_a_at) / Fold change /veh TMCC2 (11721928_a_at) / RFU IRGQ (11745062_a_at) / Fold change /veh IRGQ (11745062_a_at) / RFU FAM174B (11720279_a_at) / Fold change /veh FAM174B (11720279_a_at) / RFU TMPRSS4 (11748680_a_at) / Fold change /veh TMPRSS4 (11748680_a_at) / RFU FAM212B (11763350_a_at) / Fold change /veh FAM212B (11763350_a_at) / RFU PLEKHG5 (11743358_a_at) / Fold change /veh PLEKHG5 (11743358_a_at) / RFU ZSCAN30 (11745921_a_at) / Fold change /veh ZSCAN30 (11745921_a_at) / RFU CMKLR1 (11741424_a_at) / Fold change /veh CMKLR1 (11741424_a_at) / RFU LOC101060620 /// MAPK8IP1 (11723275_at) / Fold change /veh LOC101060620 /// MAPK8IP1 (11723275_at) / RFU SPTSSB (11747773_x_at) / Fold change /veh SPTSSB (11747773_x_at) / RFU PRSS12 (11739890_at) / Fold change /veh PRSS12 (11739890_at) / RFU BIN1 (11741810_x_at) / Fold change /veh BIN1 (11741810_x_at) / RFU WNT11 (11732464_a_at) / Fold change /veh WNT11 (11732464_a_at) / RFU C10orf10 (11716521_a_at) / Fold change /veh C10orf10 (11716521_a_at) / RFU C5orf56 (11738089_at) / Fold change /veh C5orf56 (11738089_at) / RFU CYB561 (11721691_x_at) / Fold change /veh CYB561 (11721691_x_at) / RFU ANKRD19P (11752326_a_at) / Fold change /veh ANKRD19P (11752326_a_at) / RFU OR2T12 /// OR2T33 /// OR2T8 (11738714_s_at) / Fold change /veh OR2T12 /// OR2T33 /// OR2T8 (11738714_s_at) / RFU VCAN (11748164_a_at) / Fold change /veh VCAN (11748164_a_at) / RFU JSRP1 (11732532_at) / Fold change /veh JSRP1 (11732532_at) / RFU KRTAP10-11 (11738290_x_at) / Fold change /veh KRTAP10-11 (11738290_x_at) / RFU MYO3A (11730013_a_at) / Fold change /veh MYO3A (11730013_a_at) / RFU EBF3 (11725865_a_at) / Fold change /veh EBF3 (11725865_a_at) / RFU CAMK2N1 (11719241_x_at) / Fold change /veh CAMK2N1 (11719241_x_at) / RFU C5orf56 (11738088_a_at) / Fold change /veh C5orf56 (11738088_a_at) / RFU OLFML3 (11715873_a_at) / Fold change /veh OLFML3 (11715873_a_at) / RFU LOC100653217 /// NTM (11731650_a_at) / Fold change /veh LOC100653217 /// NTM (11731650_a_at) / RFU MAPK11 (11762145_a_at) / Fold change /veh MAPK11 (11762145_a_at) / RFU FIZ1 (11724087_x_at) / Fold change /veh FIZ1 (11724087_x_at) / RFU OASL (11726364_x_at) / Fold change /veh OASL (11726364_x_at) / RFU SOX15 (11748057_x_at) / Fold change /veh SOX15 (11748057_x_at) / RFU CD79A (11719716_a_at) / Fold change /veh CD79A (11719716_a_at) / RFU HIST1H1D (11736915_at) / Fold change /veh HIST1H1D (11736915_at) / RFU CASKIN2 (11723855_a_at) / Fold change /veh CASKIN2 (11723855_a_at) / RFU LOC730098 (11760151_x_at) / Fold change /veh LOC730098 (11760151_x_at) / RFU OR4N2 (11742367_at) / Fold change /veh OR4N2 (11742367_at) / RFU PRRT2 (11749266_a_at) / Fold change /veh PRRT2 (11749266_a_at) / RFU SNX32 (11753110_a_at) / Fold change /veh SNX32 (11753110_a_at) / RFU CDHR5 (11726645_a_at) / Fold change /veh CDHR5 (11726645_a_at) / RFU RCAN1 (11760418_a_at) / Fold change /veh RCAN1 (11760418_a_at) / RFU FAM167A (11723789_a_at) / Fold change /veh FAM167A (11723789_a_at) / RFU FAM26E (11764081_at) / Fold change /veh FAM26E (11764081_at) / RFU ISYNA1 (11749810_s_at) / Fold change /veh ISYNA1 (11749810_s_at) / RFU ACY1 (11761880_at) / Fold change /veh ACY1 (11761880_at) / RFU 11764098_at / Fold change /veh 11764098_at / RFU SAMD14 (11745864_x_at) / Fold change /veh SAMD14 (11745864_x_at) / RFU NPB (11741838_a_at) / Fold change /veh NPB (11741838_a_at) / RFU TMPRSS6 (11731388_a_at) / Fold change /veh TMPRSS6 (11731388_a_at) / RFU KRTAP10-2 (11738614_at) / Fold change /veh KRTAP10-2 (11738614_at) / RFU ARHGAP8 /// PRR5-ARHGAP8 (11727945_x_at) / Fold change /veh ARHGAP8 /// PRR5-ARHGAP8 (11727945_x_at) / RFU KRTAP5-7 /// NADSYN1 (11734609_at) / Fold change /veh KRTAP5-7 /// NADSYN1 (11734609_at) / RFU RASL12 (11751679_a_at) / Fold change /veh RASL12 (11751679_a_at) / RFU CDKN2B (11736163_a_at) / Fold change /veh CDKN2B (11736163_a_at) / RFU PRF1 (11729649_at) / Fold change /veh PRF1 (11729649_at) / RFU, ZNF638 /// ZNF638-IT1 / Fold change vs veh, ZNF638 /// ZNF638-IT1 / RFU, PANK3 / Fold change vs veh, PANK3 / RFU, SH3YL1 / Fold change vs veh, SH3YL1 / RFU, ZEB2 / Fold change vs veh, ZEB2 / RFU, NRIP1 / Fold change vs veh, NRIP1 / RFU, PTTG1IP / Fold change vs veh, PTTG1IP / RFU, CAPN2 / Fold change vs veh, CAPN2 / RFU, MED14 / Fold change vs veh, MED14 / RFU, SNORA58 / Fold change vs veh, SNORA58 / RFU, C1orf63 / Fold change vs veh, C1orf63 / RFU, LRRFIP1 / Fold change vs veh, LRRFIP1 / RFU, NDUFAF7 / Fold change vs veh, NDUFAF7 / RFU, SLC12A2 / Fold change vs veh, SLC12A2 / RFU, IBTK / Fold change vs veh, IBTK / RFU, ESF1 / Fold change vs veh, ESF1 / Fold change vs veh, TMEM50B / RFU, TAOK1 / Fold change vs veh, TAOK1 / RFU, ACBD3 / Fold change vs veh, ACBD3 / RFU, TMA16 / Fold change vs veh, TMA16 / RFU, RWDD3 / Fold change vs veh, RWDD3 / RFU, BCAT1 / Fold change vs veh, BCAT1 / RFU, EDEM3 / Fold change vs veh, EDEM3 / RFU, TMEM33 / Fold change vs veh, TMEM33 / RFU, WDR75 / Fold change vs veh, WDR75 / RFU, AHCTF1 / Fold change vs veh, AHCTF1 / RFU, TFRC / Fold change vs veh, TFRC / RFU, ZDHHC17 / Fold change vs veh, ZDHHC17 / RFU, NOM1 / Fold change vs veh, NOM1 / RFU, ARL8B / Fold change vs veh, ARL8B / RFU, ZBTB11 / Fold change vs veh, ZBTB11 / RFU, TAMM41 / Fold change vs veh, TAMM41 / RFU, KIAA1704 /// LOC100996395 / Fold change vs veh, KIAA1704 /// LOC100996395 / RFU, ING1 / Fold change vs veh, ING1 / RFU, TRMT61B / Fold change vs veh, TRMT61B / RFU, FUBP3 / Fold change vs veh, FUBP3 / RFU, TP53 / Fold change vs veh, TP53 / RFU, TNKS2 / Fold change vs veh, TNKS2 / RFU, ZFP14 / Fold change vs veh, ZFP14 / RFU, ACTR2 / Fold change vs veh, ACTR2 / RFU, PPP3R1 / Fold change vs veh, PPP3R1 / RFU, PIK3R1 / Fold change vs veh, PIK3R1 / RFU, HNRNPA1 / Fold change vs veh, HNRNPA1 / RFU, RNF170 / Fold change vs veh, RNF170 / RFU, ZNF28 / Fold change vs veh, ZNF28 / RFU, RNGTT / Fold change vs veh, RNGTT / RFU, OGT / Fold change vs veh, OGT / RFU, BRD1 / Fold change vs veh, BRD1 / RFU, MARS / Fold change vs veh, MARS / RFU, ZNF655 / Fold change vs veh, ZNF655 / RFU, FAHD1 / Fold change vs veh, FAHD1 / RFU, BDP1 / Fold change vs veh, BDP1 / RFU, LRRCC1 / Fold change vs veh, LRRCC1 / RFU, ARID1A / Fold change vs veh, ARID1A / RFU, ZNF146 / Fold change vs veh, ZNF146 / RFU, ZNF330 / Fold change vs veh, ZNF330 / RFU, GPN3 / Fold change vs veh, GPN3 / RFU, C9orf123 / Fold change vs veh, C9orf123 / RFU, N4BP2L2 / Fold change vs veh, N4BP2L2 / RFU, ARFIP1 / Fold change vs veh, ARFIP1 / RFU, FAM179B / Fold change vs veh, FAM179B / RFU, BCL10 / Fold change vs veh, BCL10 / RFU, UHRF1BP1L / Fold change vs veh, UHRF1BP1L / RFU, BET1 / Fold change vs veh, BET1 / RFU, CNOT2 / Fold change vs veh, CNOT2 / RFU, ZNF268 / Fold change vs veh, ZNF268 / Fold change vs veh, ZNF507 / RFU, DGCR2 / Fold change vs veh, DGCR2 / RFU, WDSUB1 / Fold change vs veh, WDSUB1 / Fold change vs veh, HSP90B1 /// MIR3652 / RFU, ADSS / Fold change vs veh, ADSS / RFU, GK / Fold change vs veh, GK / RFU, ZNF148 / Fold change vs veh, ZNF148 / RFU, TAF9 / Fold change vs veh, TAF9 / RFU, SLC1A5 / Fold change vs veh, SLC1A5 / RFU, SLMO2 / Fold change vs veh, SLMO2 / RFU, ABCC4 / Fold change vs veh, ABCC4 / RFU, LOC101060439 /// RAP1B / Fold change vs veh, LOC101060439 /// RAP1B / RFU, RFX7 / Fold change vs veh, RFX7 / RFU, GTPBP10 / Fold change vs veh, GTPBP10 / RFU, CNEP1R1 / Fold change vs veh, CNEP1R1 / RFU, BIVM-ERCC5 /// ERCC5 / Fold change vs veh, BIVM-ERCC5 /// ERCC5 / RFU, ILF3 / Fold change vs veh, ILF3 / RFU 11762660_at / Fold change /veh 11762660_at / RFU VCAN (11757783_s_at) / Fold change /veh VCAN (11757783_s_at) / RFU DDX43 (11728927_at) / Fold change /veh DDX43 (11728927_at) / RFU KRT8 (11758188_x_at) / Fold change /veh KRT8 (11758188_x_at) / RFU NKD1 (11759106_at) / Fold change /veh NKD1 (11759106_at) / RFU SRD5A1 (11742802_a_at) / Fold change /veh SRD5A1 (11742802_a_at) / RFU TPSAB1 /// TPSB2 (11721975_s_at) / Fold change /veh TPSAB1 /// TPSB2 (11721975_s_at) / RFU GSTM3 (11746129_a_at) / Fold change /veh GSTM3 (11746129_a_at) / RFU IL23R (11737362_x_at) / Fold change /veh IL23R (11737362_x_at) / RFU TMEM51 (11727254_a_at) / Fold change /veh TMEM51 (11727254_a_at) / RFU PIWIL2 (11732686_x_at) / Fold change /veh PIWIL2 (11732686_x_at) / RFU ORM1 (11744905_x_at) / Fold change /veh ORM1 (11744905_x_at) / RFU CCDC152 (11743942_at) / Fold change /veh CCDC152 (11743942_at) / RFU ECM1 (11717891_a_at) / Fold change /veh ECM1 (11717891_a_at) / RFU IL23R (11748794_a_at) / Fold change /veh IL23R (11748794_a_at) / RFU TNFAIP8L3 (11732012_x_at) / Fold change /veh TNFAIP8L3 (11732012_x_at) / RFU MBOAT4 (11741988_at) / Fold change /veh MBOAT4 (11741988_at) / RFU 11764193_at / Fold change /veh 11764193_at / RFU TMEM53 (11763286_at) / Fold change /veh TMEM53 (11763286_at) / RFU MAGEB2 (11727129_at) / Fold change /veh MAGEB2 (11727129_at) / RFU TMEM200A (11744735_a_at) / Fold change /veh TMEM200A (11744735_a_at) / RFU CCDC152 (11751479_a_at) / Fold change /veh CCDC152 (11751479_a_at) / RFU FAM211A (11726209_a_at) / Fold change /veh FAM211A (11726209_a_at) / RFU RGS16 (11746705_a_at) / Fold change /veh RGS16 (11746705_a_at) / RFU VCAN (11755009_s_at) / Fold change /veh VCAN (11755009_s_at) / RFU RHOB (11743442_s_at) / Fold change /veh RHOB (11743442_s_at) / RFU RGS16 (11720943_a_at) / Fold change /veh RGS16 (11720943_a_at) / RFU RGS16 (11720944_at) / Fold change /veh RGS16 (11720944_at) / RFU, VPS4B / Fold change vs veh, VPS4B / RFU, CREB1 / Fold change vs veh, CREB1 / RFU, DNAJC13 / Fold change vs veh, DNAJC13 / RFU, GNAQ / Fold change vs veh, GNAQ / RFU, CDK5R1 / Fold change vs veh, CDK5R1 / RFU, ZRANB3 / Fold change vs veh, ZRANB3 / RFU, CUL4A / Fold change vs veh, CUL4A / RFU, CCNY / Fold change vs veh, CCNY / RFU, UFL1 / Fold change vs veh, UFL1 / RFU, COG3 / Fold change vs veh, COG3 / RFU, DIAPH2 / Fold change vs veh, DIAPH2 / RFU, SKA2 / Fold change vs veh, SKA2 / RFU, AFF3 / Fold change vs veh, AFF3 / RFU, LMF1 / Fold change vs veh, LMF1 / RFU, IPO11 / Fold change vs veh, IPO11 / RFU, DFFB / Fold change vs veh, DFFB / RFU, FOXP1 / Fold change vs veh, FOXP1 / RFU, CARD8 / Fold change vs veh, CARD8 / RFU, STRN3 / Fold change vs veh, STRN3 / RFU, ADK / Fold change vs veh, ADK / RFU, RASSF2 / Fold change vs veh, RASSF2 / RFU, WIPF1 / Fold change vs veh, WIPF1 / RFU, LARP1B / Fold change vs veh, LARP1B / RFU, RASA1 / Fold change vs veh, RASA1 / RFU, RB1 / Fold change vs veh, RB1 / RFU, PPFIA1 / Fold change vs veh, PPFIA1 / RFU, MAT2A / Fold change vs veh, MAT2A / RFU, CCT5 / Fold change vs veh, CCT5 / RFU, WDR92 / Fold change vs veh, WDR92 / RFU, CUX1 / Fold change vs veh, CUX1 / RFU, TTC7A / Fold change vs veh, TTC7A / RFU, TMEM135 / Fold change vs veh, TMEM135 / RFU, DEPTOR / Fold change vs veh, DEPTOR / RFU, CPM / Fold change vs veh, CPM / RFU, DNAJB6 / Fold change vs veh, DNAJB6 / RFU, CACNA2D3 / Fold change vs veh, CACNA2D3 / RFU, DTX4 / Fold change vs veh, DTX4 / RFU, TFCP2 / Fold change vs veh, TFCP2 / RFU, GMCL1 /// GMCL1P1 / Fold change vs veh, GMCL1 /// GMCL1P1 / RFU, AEBP2 / Fold change vs veh, AEBP2 / RFU, SNHG1 /// SNORD22 /// SNORD25 /// SNORD26 /// SNORD27 /// SNORD28 /// SNORD29 /// SNORD31 / Fold change vs veh, SNHG1 /// SNORD22 /// SNORD25 /// SNORD26 /// SNORD27 /// SNORD28 /// SNORD29 /// SNORD31 / Fold change (Aza/veh), C12orf56 (ProbeSet 11735607_a_at) / Fold change (ACY-1035/veh), C12orf56 (ProbeSet 11735607_a_at) / Fold change (Aza/veh), FGFR1OP (ProbeSet 11751329_s_at) / Fold change (ACY-1035/veh), FGFR1OP (ProbeSet 11751329_s_at) / Fold change (Aza/veh), VPS36 (ProbeSet 11739960_a_at) / Fold change (ACY-1035/veh), VPS36 (ProbeSet 11739960_a_at) / RFU SYPL1 (11715823_x_at) / Fold change /veh SYPL1 (11715823_x_at) / RFU IGFBP7 (11715501_s_at) / Fold change /veh IGFBP7 (11715501_s_at) / RFU REEP3 (11722064_at) / Fold change /veh REEP3 (11722064_at) / RFU IGLL1 (11728026_x_at) / Fold change /veh IGLL1 (11728026_x_at): dose or concentration left out as unconfirmed
Conditions: ProbeSet 11749551_a_at; LIST B

SMILES: Nc1ccc(-c2cccs2)cc1NC(=O)c1ccc2c(c1)cc(C1CC1)n2CCN1CCOCC1 [ACY-1035]
- RFU, RNGTT: 53.54 RFU

Reference: publication PMC5218480 (PLoS ONE, 2017)
